From US4454120A, “Analgesic dipeptide amides and method of use and compositions thereof” (Sterling Drug Inc., priority 1982, dated 1984)

Legend:
guinea pig ileum = details: cited from earlier work
mouse vas deferens = details: cited from earlier work
[1] = tested on: guinea pig ileum longitudinal muscle; assay: Guinea pig ileum test (inhibition of electrically induced twitch); format: cell-based; details: ratio of IC50 of reference Met5-enkephalin (=100) to IC50 of test compound in the same preparation, averaged, usually N=4
Method: Adult male guinea pigs (Charles River, Hartley strain) weighing 300-500 g. are decapitated, and the terminal ileum is exposed by reflecting the overlying cecum, severed at the ileocecal juncture, and removed while cutting the mesenteric attachments to avoid excessive traction on the tissue. The ileum (about 30 cm. in length) is transferred to a beaker containing warm modified Krebs-Henseleit solution (118 mM sodium chloride, 4.75 mM potassium chloride, 2.54 mM calcium chloride, 1.19 mM potassium dihydrogen phosphate, 1.2 mM magnesium sulfate, 25 mM sodium bicarbonate, 11 mM glucose, 20 μM choline chloride and 0.125 μM pyrilamine maleate). The terminal (aboral) portion (about 10 cm. in length) is discarded, and segments (3-4 cm. in length) are cut from the remainder and gently slid onto a glass rod (5-6 mm. in diameter) and arranged so that the meseneteric attachment is in a straight line. A cotton swab moistened in the solution is then carefully used to separate the longitudinal muscle from the underlying circular muscle. The longitudinal muscle and adhering myenteric plexus is then gently removed from the remaining tissue with forceps.
Strips of this prepared longitudinal muscle are mounted in a double-jacketed organ bath (5 ml.) under tension (1.0 g.), connected to isometric transducers (Grass FT .03), bathed in the modified Krebs-Henseleit solution described above, aerated with oxygen-carbon dioxide (95:5) and maintained at 37° C.
Stimulators (Grass S-44) are set to deliver repetitive monophasic square wave field stimulation (supramaximal voltage, 0.10 Hz., 0.25 msec. duration) through platinum ring electrodes at the top and bottom of the bath. Regular contractions of the muscle, which result from electrically-induced liberation of acetylcholine from postganglionic parasympathetic nerves, are recorded on a polygraph (Grass model 5). Following tissue equilibration (45-60 min.) and repeated washing (every 10 min.) an aqueous solution of a reference or test compound is added to the bath in a microliter volume (1.25-250 μl) and reductions in muscle twitch height are recorded. More compound can be added […] first washing the preparation.
From the results a half-mazimal inhibitory concentration (IC50) value for the compound is computed by regression analysis of a linear plot of logarithm of concentration against percent of inhibition of twitch height (probits). The ratio of the IC50 value of a reference compound to that of a test compound tested in the same preparation is the molar potency ratio. Usually four preparations are tested simultaneously by the same person (N=4), and the resulting four molar potency ratios are averaged.
The following results were obtained using the examples as test compounds and Met^5 -enkephalin as the reference compound.

Male Swiss-Webster mice = assay: Mouse acetylcholine writhing test; format: in vivo; details: for ED50: Mus musculus, sc, subcutaneous, approximate values
Method: Male Swiss-Webster mice each weighing 18-24 g. are treated subcutaneously (10 ml./kg. injection volume) or orally with the test compound in an aqueous vehicle. Twenty minutes thereafter each mouse is injected intraperitoneally with acetylcholine (3.2 mg./kg.) in aqueous sodium chloride (0.9%). This dose of acetylcholine causes one or more characteristic writhes in the two minute period following injection in control mice which receive the aqueous vehicle not containing the test compound. […] Test compounds are screened at doses of 100 and 30 mg./kg. subcutaneously and 300 and 100 mg./kg. orally using 15 mice at each dose level. ED50 values for active compounds are estimated by probit analysis of quantal scores at four or more dose levels using 15 mice at each dose level.

opiate receptor = details: rat brain membranes, relative to morphine; cited from earlier work
rat = rat tail flick, relative to morphine, cited from earlier work

Compound	Average Molar Potency Ratio [1]	other results
C[C@@H](NC(=O)[C@@H](N)Cc1ccc(O)cc1)C(=O)NCCNCCc1ccccc1 [HTyrD-AlaNH(CH2)2 NH(CH2)2 Phenyl]		potency relative to Met-enkephalin (guinea pig ileum): < 1%; potency relative to Met-enkephalin (mouse vas deferens): < 1%
Cl.NC(=O)CC[C@@H](NC(=O)[C@@H](N)Cc1ccc(O)cc1)C(=O)NCCCc1ccccc1.O [Example 9, L-tyrosyl-N^1-(3-phenylpropyl)-D-glutamamide monohydrochloride hydrate (4:3)]	47	
N-methyl-L-tyrosyl-N-(3-phenylpropyl)-D-methioninamide S-oxide monohydrochloride hemihydrate [Example 6]	360	
L-tyrosyl-N-(3-phenylpropyl)-D-serinamide hydrate (3:2) [Example 10]	15	
CN[C@@H](Cc1ccc(O)cc1)C(=O)N[C@@H](CCSC)C(=O)NCCCc1ccccc1.Cl.O [Example 5, N-methyl-L-tyrosyl-N-(3-phenylpropyl)-L-methioninamide monohydrochloride hydrate (4:1)]	180	95% confidence limits of subcutaneous ED50 (Male Swiss-Webster mice): 5.0 to 12 mg/kg; subcutaneous ED50 (Male Swiss-Webster mice; acetylcholine 3.2 mg./kg. i.p. 20 min after the compound, probit analysis): 8.5 mg/kg
L-tyrosyl-N-(3-phenylpropyl)-D-methioninamide S-oxide monohydrochloride sesquihydrate [Example 2]	1180	
CN(CCCc1ccccc1)C(=O)[C@@H](CC[S+](C)[O-])NC(=O)[C@@H](N)Cc1ccc(O)cc1.Cl.O (stereo partly drawn) [Example 4, L-tyrosyl-N-methyl-N-(3-phenylpropyl)-D-methioninamide S-oxide monohydrochloride monohydrate]	5	ED50 (Male Swiss-Webster mice): > 30 mg/kg
CN(C(=O)[C@@H](N)Cc1ccc(O)cc1)[C@H](CC[S+](C)[O-])C(=O)NCCCc1ccccc1.Cl.O (stereo partly drawn) [Example 8, L-tyrosyl-N^2-methyl-N-(3-phenylpropyl)-D-methioninamide S-oxide monhydrochloride monohydrate]	650	
CSCC[C@@H](NC(=O)[C@@H](N)Cc1ccc(O)cc1)C(=O)N(C)CCCc1ccccc1.Cl [Example 3, L-tyrosyl-N-methyl-N-(3-phenylpropyl)-D-methioninamide monohydrochloride]	19	
CSCC[C@@H](NC(=O)[C@@H](N)Cc1ccc(O)cc1)C(=O)NCCCc1ccccc1.Cl.O [Example 1, L-tyrosyl-N-(3-phenylpropyl)-D-methioninamide monohydrochloride monohydrate]	279	ED50 (Male Swiss-Webster mice): > 30 mg/kg
CSCC[C@H](C(=O)NCCCc1ccccc1)N(C)C(=O)[C@@H](N)Cc1ccc(O)cc1.Cl [Example 7, L-tyrosyl-N^2-methyl-N-(3-phenylpropyl)-D-methioninamide monohydrochloride]	260	
C[C@@H](NC(=O)[C@@H](N)Cc1ccc(O)cc1)C(N)=O [H-Tyr-D-Ala-NH2]		times less affinity than morphine (opiate receptor): 830 times; times less potent than morphine, intravenously (rat; intravenous): greater than 10 times; times less potent than morphine, intraventricularly (rat; intraventricular): 200 times
Met^5 -enkephalin [reference compound]	100	
